Measurements from patent US11072617B2, “Bicyclic sulfones and sulfoxides and methods of use thereof” (Genentech, Inc., priority 2017, dated 2021).
pKi: −log10 of the molar value.

These compounds were tested against human RIP1 kinase domain (2-375) (Homo sapiens (Human), UniProt Q13546) (assay: RIP1 kinase inhibition biochemical assay (Transcreener ADP, fluorescence polarization)). Details: Ki app from tight-binding Morrison equation; 50 nM enzyme, 50 uM ATP, 2 hours incubation.
human RIP1 kinase domain (2-375), sequence (Q13546 2-375): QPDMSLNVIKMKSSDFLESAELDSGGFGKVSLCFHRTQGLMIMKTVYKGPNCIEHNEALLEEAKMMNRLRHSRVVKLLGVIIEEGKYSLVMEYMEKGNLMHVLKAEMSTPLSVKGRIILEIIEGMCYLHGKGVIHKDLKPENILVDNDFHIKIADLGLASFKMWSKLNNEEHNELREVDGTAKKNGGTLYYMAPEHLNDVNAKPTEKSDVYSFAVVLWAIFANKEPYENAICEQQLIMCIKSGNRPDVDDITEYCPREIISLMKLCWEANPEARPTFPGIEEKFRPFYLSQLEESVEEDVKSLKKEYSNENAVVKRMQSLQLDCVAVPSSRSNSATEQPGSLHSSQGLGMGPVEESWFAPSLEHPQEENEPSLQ
Method: RIP1 Kinase Inhibition Assays (Biochemical Assay)
The compounds of the present invention were tested for their capacity to inhibit RIP1K activity as described below.
The ability of the receptor interacting protein kinase (RIPK1) to catalyze the hydrolysis of adenosine-5′-triphosphate (ATP) is monitored using the Transcreener ADP (adenosine-5′-diphosphate) assay (BellBrook Labs). Purified human RIP1 kinase domain (2-375) (50 nM) derived from a baculovirus-infected insect cell expression system is incubated with test compounds for 2 hours in 50 mM Hepes buffer (pH 7.5) containing 30 mM MgCl2, 1 mM dithiothreitol, 50 uM ATP, 0.002% Brij-35, and 0.5% dimethyl sulfoxide (DMSO). Reactions are quenched by the addition of 1× Bell Brooks Stop buffer B (20 mM Hepes (ph7.5), 40 mM ethylenediaminetetraacetic acid and 0.02% Brij-35) containing an additional 12 mM EDTA and 55 ug/mL ADP2 antibody and 4 nM ADP-AlexaFluor® 633 tracer. The tracer bound to the antibody is displaced by the ADP generated during the RIP1K reaction, which causes a decrease in fluorescence polarization that is measured by laser excitation at 633 nm with a FP microplate reader M1000. Fractional activity was plotted against test article concentration. Using Genedata Screener software (Genedata; Basel, Switzerland), the data were fit to the tight-binding apparent inhibition constant (Ki^app) Morrison equation [Williams, J. W. and Morrison, J. F. (1979) The kinetics of reversible tight-binding inhibition. Methods Enzymol 63: 437-67]. The following equation was used to calculate fractional activity and Ki^app:
[formula] where [E]T and [I]T are the total concentrations of active enzyme and test article, respectively.
Exemplary compounds of the present invention are provided in Table 1 along with their physiochemical characterization and in vitro RIP1 kinase inhibitory activity data. “Method” in the first column of each table refers to the synthetic method(s) used to prepare each compound as shown in the Examples above. In certain examples, chiral column retention times (min) are provided for certain stereoisomers. Unless otherwise specified, the stereochemistry shown in each structure represents relative configuration of a single stereoisomer, and absolute configuration (i.e., “R” and/or “S”) is arbitrarily assigned. In some embodiments, where the Method is described to include the separation of stereoisomers, a single stereoisomer of a compound of Table 1 is provided.
`O=S(=O)(c1nc2n(n1)[C@H](c1cccc(F)c1F)C[C@@H]2F)[C@@H]1CC1(F)F` (single isomer, unassigned) [Example 128] showed a pKi of 8.00.
Compound `N#CC[S@+]([O-])c1nc2n(n1)[C@H](c1ccccc1F)C[C@@H]2F` (single isomer, unassigned) [Example 95] has a pKi of 6.72.
For `COCCS(=O)(=O)c1nc2n(n1)[C@H](c1ccccc1)C[C@@H]2F` (single isomer, unassigned) [Example 224], the pKi was 6.74.
Work on `CC[S@+]([O-])c1nc2n(n1)[C@H](c1ccccc1)C[C@@H]2F` (single isomer, unassigned) [Example 190] yielded a pKi of 8.10.
In the case of `O=S(=O)(c1nc2n(n1)[C@H](c1cccc(F)c1F)C[C@@H]2F)[C@H]1CC1(F)F` [Example 121, (5S,7S)-2-(2,2-difluorocyclopropyl)sulfonyl-5-(2,3-difluorophenyl)-7-fluoro-6,7-dihydro-5H-pyrrolo[1,2-b][1,2,4]triazole], the pKi was greater than 8.30.
Compound `N#CC[S@+]([O-])c1nc2n(n1)[C@@H](c1ccccc1Cl)C[C@H]2F` (single isomer, unassigned) [Example 101] has a pKi of 7.33.
`[O-][S@+](CF)c1nc2n(n1)[C@H](c1cccc(F)c1)C[C@@H]2F` (single isomer, unassigned) [Example 83] was tested, and the pKi was 6.89.
In the case of `O=S(=O)(c1nc2n(n1)[C@H](c1ccccc1)C[C@@H]2F)C1CC1(F)F` (mixture of isomers) [Example 118, (5S,7S)-2-((2,2-difluorocyclopropyl)sulfonyl)-7-fluoro-5-phenyl-6,7-dihydro-5H-pyrrolo[1,2-b][1,2,4]triazole], the pKi was 8.40.
`COC[S+]([O-])c1nc2n(n1)[C@H](c1ccccc1)C[C@@H]2F` (stereo partly drawn) [Example 115, (5S,7S)-7-fluoro-2-(methoxymethylsulfinyl)-5-phenyl-6,7-dihydro-5H-pyrrolo[1,2-b][1,2,4]triazole] gave a pKi of 7.51.
For `O=S(=O)(c1nc2n(n1)[C@H](c1ccc(F)c(F)c1)C[C@@H]2F)C1CC1` (single isomer, unassigned) [Example 44], the pKi was 7.68.
`O=S(=O)(c1nc2n(n1)[C@H](c1ccccc1F)C[C@@H]2F)[C@@H]1CC1(F)F` (single isomer, unassigned) [Example 124] gave a pKi greater than 8.30.
With `N#CC[S@@+]([O-])c1nc2n(n1)[C@H](c1ccc(F)cc1)C[C@@H]2F` (single isomer, unassigned) [Example 100] the pKi was 8.52.
Work on `O=S(=O)(c1nc2n(n1)[C@H](c1cc(Cl)ccc1F)C[C@@H]2F)C1CC1` (single isomer, unassigned) [Example 47] yielded a pKi of 7.17.
With `[O-][S@@+](c1nc2n(n1)[C@H](c1ccccc1)CC2)C(F)F` [Example 12, (5S)-2-[(S)-difluoromethylsulfinyl]-5-phenyl-6,7-dihydro-5H-pyrrolo[1,2-b][1,2,4]triazole] the pKi was 7.32.
Work on `O=S(=O)(c1nc2n(n1)[C@H](c1cccc(F)c1)C[C@@H]2F)[C@H]1C[C@H](F)C1` (single isomer, unassigned) [Example 226] yielded a pKi of 8.03.
Work on `[2H][C@H]1C[C@@H](c2ccccc2)n2nc(S(=O)(=O)C3CC3)nc21` [Example 41, (5S,7S)-2-cyclopropylsulfonyl-7-deuterio-5-phenyl-6,7-dihydro-5H-pyrrolo[1,2-b][1,2,4]triazole] yielded a pKi of 6.85.
`[O-][S@@+](CC1CC1)c1nc2n(n1)[C@H](c1ccccc1)C[C@@H]2F` (single isomer, unassigned) [Example 186] was tested, and the pKi was 7.70.
`N#CC[S@+]([O-])c1nc2n(n1)[C@H](c1ccccc1Cl)C[C@@H]2F` (single isomer, unassigned) [Example 93] gave a pKi of 7.04.
`O=S(=O)(c1nc2n(n1)[C@H](c1ccccc1)C[C@@H]2F)C1CC12CC2` (stereo partly drawn) [Example 170, (5S,7S)-7-fluoro-5-phenyl-2-spiro[2.2]pentan-2-ylsulfonyl-6,7-dihydro-5H-pyrrolo[1,2-b][1,2,4]triazole] was tested, and the pKi was greater than 8.30.
`N#CC[S+]([O-])c1nc2n(n1)[C@H](c1ccccc1)C[C@@H]2F` (stereo partly drawn) [Example 102, 2-[[(5S,7S)-7-fluoro-5-phenyl-6,7-dihydro-5H-pyrrolo[1,2-b][1,2,4]triazol-2-yl]sulfinyl]acetonitrile] gave a pKi of 7.74.
With `O=S(=O)(c1nc2n(n1)[C@H](c1cc(Cl)ccc1F)C[C@@H]2F)C(F)F` [Example 66, (5S,7S)-5-(5-chloro-2-fluorophenyl)-2-((difluoromethyl)sulfonyl)-7-fluoro-6,7-dihydro-5H-pyrrolo[1,2-b][1,2,4]triazole] the pKi was 7.16.
`O=S(=O)(c1nc2n(n1)[C@H](c1cccc(Cl)c1F)C[C@@H]2F)[C@H]1C[C@@H]1F` [Example 219, (5S,7S)-5-(3-chloro-2-fluoro-phenyl)-7-fluoro-2-[(1S,2S)-2-fluorocyclopropyl]sulfonyl-6,7-dihydro-5H-pyrrolo[1,2-b][1,2,4]triazole] showed a pKi of 7.60.
`CC(C)(C#N)[S+]([O-])c1nc2n(n1)[C@H](c1ccccc1)C[C@@H]2F` (stereo partly drawn) [Example 103, 2-[[(5S,7S)-7-fluoro-5-phenyl-6,7-dihydro-5H-pyrrolo[1,2-b][1,2,4]triazol-2-yl]sulfinyl]-2-methyl-propanenitrile] gave a pKi of 6.82.
`[O-][S@+](c1nc2n(n1)[C@H](c1ccccc1)C[C@@H]2F)C(F)(F)F` (single isomer, unassigned) [Example 181] was tested, and the pKi was 8.40.
`O=S(=O)(c1nc2n(n1)[C@H](c1ccccc1)C[C@@H]2F)[C@@H]1C[C@H]1F` (single isomer, unassigned) [Example 145] was tested, and the pKi was 8.30.
For `O=S(=O)(Cc1ccccc1)c1nc2n(n1)[C@H](c1ccccc1)C[C@@H]2F` (single isomer, unassigned) [Example 19], the pKi was 7.82.
Work on `O=S(=O)(c1nc2n(n1)[C@H](c1ccccc1)C[C@@H]2F)C(F)F` (single isomer, unassigned) [Example 23] yielded a pKi of 8.30.
For `O=S(=O)(c1nc2n(n1)[C@H](c1cccc(Cl)c1)C[C@@H]2F)C(F)F` (single isomer, unassigned) [Example 61], the pKi was 7.41.
Compound `O=S(=O)(c1nc2n(n1)[C@H](c1ccccc1Cl)C[C@@H]2F)[C@H]1CC1(F)F` (single isomer, unassigned) [Example 120] has a pKi greater than 8.30.
Work on `[O-][S@@+](c1nc2n(n1)[C@H](c1ccccc1)C[C@@H]2F)C(F)F` [Example 21, (5S,7S)-2-[(S)-difluoromethylsulfinyl]-7-fluoro-5-phenyl-6,7-dihydro-5H-pyrrolo[1,2-b][1,2,4]triazole] yielded a pKi of 7.00.
For `O=S(=O)(c1nc2n(n1)[C@H](c1ccccc1)C[C@@H]2F)[C@H]1CCC1(F)F` [Example 172, (5S,7S)-7-fluoro-5-phenyl-2-[(1S)-2,2-difluorocyclobutyl]sulfonyl-6,7-dihydro-5H-pyrrolo[1,2-b][1,2,4]triazole], the pKi was 8.22.
`[O-][S@+](CF)c1nc2n(n1)[C@H](c1cc(F)ccc1F)C[C@@H]2F` (single isomer, unassigned) [Example 79] gave a pKi of 6.72.
In the case of `O=S(=O)(c1nc2n(n1)[C@H](c1cc(F)ccc1F)C[C@@H]2F)C1CC1` (single isomer, unassigned) [Example 37], the pKi was 8.22.
Compound `CC(C)S(=O)(=O)c1nc2n(n1)[C@H](c1ccccc1)C[C@@H]2F` (single isomer, unassigned) [Example 110] has a pKi of 7.85.
For `CCS(=O)(=O)c1nc2n(n1)[C@H](c1ccccc1F)CC2` (single isomer, unassigned) [Example 8], the pKi was 6.54.
For `O=S(=O)(c1nc2n(n1)[C@H](c1c(F)ccc(F)c1F)C[C@@H]2F)C(F)F` (single isomer, unassigned) [Example 59], the pKi was 8.15.
With `O=S(=O)(c1nc2n(n1)[C@H](c1ccccc1F)C[C@@H]2F)[C@H]1CC1(F)F` (single isomer, unassigned) [Example 119] the pKi was 8.15.
`[O-][S@+](CF)c1nc2n(n1)[C@H](c1cccc(F)c1F)C[C@@H]2F` (single isomer, unassigned) [Example 77] gave a pKi of 6.55.
In the case of `O=S(=O)(c1nc2n(n1)[C@H](c1cccc(F)c1)C[C@@H]2F)[C@H]1C[C@@H]1F` (single isomer, unassigned) [Example 141], the pKi was greater than 8.30.
With `CCS(=O)(=O)c1nc2n(n1)C(c1ccccc1)CC2` (racemic) [Example 2, 2-ethylsulfonyl-5-phenyl-6,7-dihydro-5H-pyrrolo[1,2-b][1,2,4]triazole] the pKi was 6.06.
In the case of `CS(=O)(=O)c1nc2n(n1)[C@H](c1ccccc1)C[C@@H]2F` (single isomer, unassigned) [Example 106], the pKi was 7.66.
With `[O-][S@+](c1nc2n(n1)[C@H](c1ccccc1)CC2)C(F)F` [Example 11, (5S)-2-[(R)-difluoromethylsulfinyl]-5-phenyl-6,7-dihydro-5H-pyrrolo[1,2-b][1,2,4]triazole] the pKi was 8.00.
